Measurements taken from patent publication US11912703B2, “6-azaindole compounds” (BRISTOL-MYERS SQUIBB COMPANY, priority 2017, dated 2024).
Read-outs that look alike come from different tables or passages of the source.

Experiments:
human TLR7 = human TLR7 (Homo sapiens (Human), UniProt Q9NYK1); experiment: TLR7 inhibition reporter assay (HEK-Blue SEAP); format: cell-based; conditions: HEK-Blue cells overexpressing human TLR7, gardiquimod 7.5 μM stimulation
Experimental: (§1) HEK-Blue™-cells (Invivogen) overexpressing human TLR7, TLR8 or TLR9 receptors were used for screening inhibitors of these receptors using an inducible SEAP (secreted embryonic alkaline phosphatase) reporter gene under the control of the IFN-β minimal promoter fused to five NF-κB and AP-1-binding sites. Briefly, cells are seeded into Greiner 384 well plates (15000 cells per well for TLR7, 20,000 for TLR8 and 25,000 for TLR9) and then treated with test compounds in DMSO to yield a final dose response concentration range of 0.05 nM-50 μM. After a 30 minute compound pre-treatment at room temperature, the cells are then stimulated with a TLR7 ligand (gardiquimod at a final concentration of 7.5 μM), TLR8 ligand (R848 at a final concentration of 15.9 μM) or TLR9 ligand (ODN2006 at a final concentration of 5 nM) to activate NF-κB and AP-1 which induce the production of SEAP. After a 22 hour incubation at 37° C., 500 CO2, SEAP levels are determined with the addition of HEK-Blue™ Detection reagent (Invivogen), a cell culture medium that allows for detection of SEAP, according to manufacturer's specifications.

human TLR8 = human TLR8 (Homo sapiens (Human), UniProt Q9NR97); experiment: TLR8 inhibition reporter assay (HEK-Blue SEAP);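 also: SEAP driven by IFN-β minimal promoter with five NF-κB and AP-1 sites, compounds tested 0.05 nM to 50 µM, 22 h incubation, inhibition relative to agonist plus DMSO wells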
Chain of human TLR8 (Q9NR97 27-1041): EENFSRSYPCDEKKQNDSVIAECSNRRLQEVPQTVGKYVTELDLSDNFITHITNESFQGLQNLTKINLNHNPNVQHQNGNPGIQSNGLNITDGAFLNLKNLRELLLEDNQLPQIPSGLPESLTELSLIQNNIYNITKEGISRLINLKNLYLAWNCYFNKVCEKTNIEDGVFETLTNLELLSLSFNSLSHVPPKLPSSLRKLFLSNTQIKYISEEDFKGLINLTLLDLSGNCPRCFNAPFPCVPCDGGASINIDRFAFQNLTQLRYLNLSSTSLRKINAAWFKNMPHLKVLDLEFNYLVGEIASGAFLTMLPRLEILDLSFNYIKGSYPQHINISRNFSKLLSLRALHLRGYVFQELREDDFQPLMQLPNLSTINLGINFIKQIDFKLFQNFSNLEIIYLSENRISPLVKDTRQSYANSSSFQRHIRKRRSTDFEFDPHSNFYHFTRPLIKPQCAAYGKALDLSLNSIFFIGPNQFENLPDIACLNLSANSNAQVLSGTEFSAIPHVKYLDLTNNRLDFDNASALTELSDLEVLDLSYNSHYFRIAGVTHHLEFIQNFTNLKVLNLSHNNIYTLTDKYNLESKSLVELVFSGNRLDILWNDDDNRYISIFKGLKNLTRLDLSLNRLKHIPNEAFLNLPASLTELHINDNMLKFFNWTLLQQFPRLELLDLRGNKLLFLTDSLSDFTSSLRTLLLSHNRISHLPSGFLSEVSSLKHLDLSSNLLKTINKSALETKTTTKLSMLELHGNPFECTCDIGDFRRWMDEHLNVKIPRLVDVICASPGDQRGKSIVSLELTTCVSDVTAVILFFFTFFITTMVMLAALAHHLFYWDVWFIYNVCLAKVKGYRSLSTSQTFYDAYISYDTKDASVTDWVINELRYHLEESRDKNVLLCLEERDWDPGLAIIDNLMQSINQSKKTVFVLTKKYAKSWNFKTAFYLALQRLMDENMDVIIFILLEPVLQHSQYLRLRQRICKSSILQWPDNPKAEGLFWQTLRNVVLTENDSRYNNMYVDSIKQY
Experimental: as §1

human TLR9 = human TLR9 (Homo sapiens (Human), UniProt Q9NR96); experiment: TLR9 inhibition reporter assay (HEK-Blue SEAP);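 also: SEAP driven by IFN-β minimal promoter carrying five NF-κB and AP-1 sites, 22 h at 37 °C, compounds 0.05 nM–50 µM, inhibition scaled between agonist-plus-DMSO and reference-inhibitor wells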
Chain of human TLR9 (Q9NR96 26-1032): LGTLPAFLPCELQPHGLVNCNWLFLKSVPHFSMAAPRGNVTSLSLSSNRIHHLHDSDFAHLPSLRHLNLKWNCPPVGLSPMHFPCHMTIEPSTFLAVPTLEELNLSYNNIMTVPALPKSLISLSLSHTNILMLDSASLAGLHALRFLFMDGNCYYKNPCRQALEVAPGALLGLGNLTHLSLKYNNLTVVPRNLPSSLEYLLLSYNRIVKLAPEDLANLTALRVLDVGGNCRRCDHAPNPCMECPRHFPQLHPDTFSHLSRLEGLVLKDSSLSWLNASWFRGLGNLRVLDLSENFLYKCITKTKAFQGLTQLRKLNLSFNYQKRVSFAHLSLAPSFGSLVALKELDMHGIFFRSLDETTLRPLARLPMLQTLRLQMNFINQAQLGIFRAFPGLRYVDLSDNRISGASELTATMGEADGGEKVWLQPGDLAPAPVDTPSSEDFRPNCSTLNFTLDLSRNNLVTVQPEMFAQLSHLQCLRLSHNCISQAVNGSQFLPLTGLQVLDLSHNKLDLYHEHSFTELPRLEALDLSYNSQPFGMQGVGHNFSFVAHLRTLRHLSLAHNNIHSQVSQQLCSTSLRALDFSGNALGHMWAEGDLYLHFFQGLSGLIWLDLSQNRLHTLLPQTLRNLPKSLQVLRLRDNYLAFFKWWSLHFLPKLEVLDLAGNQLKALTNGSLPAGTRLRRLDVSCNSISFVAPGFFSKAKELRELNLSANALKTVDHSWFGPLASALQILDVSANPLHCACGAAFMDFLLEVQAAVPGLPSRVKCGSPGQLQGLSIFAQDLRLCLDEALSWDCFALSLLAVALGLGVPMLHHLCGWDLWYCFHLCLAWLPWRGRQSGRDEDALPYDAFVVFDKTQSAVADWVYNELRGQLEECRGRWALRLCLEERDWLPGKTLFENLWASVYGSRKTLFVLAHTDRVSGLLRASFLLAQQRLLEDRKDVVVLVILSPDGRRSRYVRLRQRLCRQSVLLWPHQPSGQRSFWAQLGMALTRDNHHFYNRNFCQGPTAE

[1] = read-out: TLR8 IC50; HEK-Blue cells overexpressing human TLR8, R848 15.9 μM stimulation, SEAP reporter
[2] = read-out: TLR9 IC50; HEK-Blue cells overexpressing human TLR9, ODN2006 5 nM stimulation, SEAP reporter
[3] = read-out: TLR8 IC50; HEK-Blue cells overexpressing human TLR8; R848 15.9 μM stimulation; SEAP reporter
[4] = read-out: TLR9 IC50; HEK-Blue cells overexpressing human TLR9; ODN2006 5 nM stimulation; SEAP reporter

Chain of human TLR7 (Q9NYK1 27-1049): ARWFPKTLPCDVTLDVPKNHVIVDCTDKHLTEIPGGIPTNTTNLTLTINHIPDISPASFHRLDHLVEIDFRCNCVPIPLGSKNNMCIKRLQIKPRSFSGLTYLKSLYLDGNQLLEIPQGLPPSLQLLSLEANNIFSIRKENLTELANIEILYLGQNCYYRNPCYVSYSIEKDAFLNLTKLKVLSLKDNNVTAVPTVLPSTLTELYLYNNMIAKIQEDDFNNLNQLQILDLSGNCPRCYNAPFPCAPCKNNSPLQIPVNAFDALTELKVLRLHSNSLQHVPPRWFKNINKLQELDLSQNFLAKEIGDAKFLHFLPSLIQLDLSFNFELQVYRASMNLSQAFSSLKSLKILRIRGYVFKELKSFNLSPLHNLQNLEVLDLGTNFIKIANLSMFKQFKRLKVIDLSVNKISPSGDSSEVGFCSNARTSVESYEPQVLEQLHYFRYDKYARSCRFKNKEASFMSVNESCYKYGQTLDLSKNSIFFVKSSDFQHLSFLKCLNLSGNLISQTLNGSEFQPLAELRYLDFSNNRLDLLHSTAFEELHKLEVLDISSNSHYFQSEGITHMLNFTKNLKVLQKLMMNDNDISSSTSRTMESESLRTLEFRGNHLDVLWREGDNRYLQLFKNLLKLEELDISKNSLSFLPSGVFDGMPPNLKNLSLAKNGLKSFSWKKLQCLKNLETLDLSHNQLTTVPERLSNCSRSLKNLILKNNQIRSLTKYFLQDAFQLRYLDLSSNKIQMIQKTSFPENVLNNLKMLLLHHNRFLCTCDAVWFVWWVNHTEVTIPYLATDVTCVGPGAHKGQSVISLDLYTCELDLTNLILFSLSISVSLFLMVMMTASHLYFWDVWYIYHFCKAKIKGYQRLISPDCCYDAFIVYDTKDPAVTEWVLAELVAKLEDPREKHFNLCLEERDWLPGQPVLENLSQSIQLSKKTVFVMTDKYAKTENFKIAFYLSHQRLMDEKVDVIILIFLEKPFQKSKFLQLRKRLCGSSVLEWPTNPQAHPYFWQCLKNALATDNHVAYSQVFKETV

Compound | IC50 (human TLR7) [nM] | IC50 (human TLR8; [1]) [nM] | IC50 (human TLR9; [2]) [nM] | IC50 (human TLR8; [3]) [nM] | IC50 (human TLR9; [4]) [nM]
COc1cc(-c2[nH]c3cnc(C4CCC(N(C)C5COC5)CC4)c(F)c3c2C(C)C)cn2ncnc12 (stereo not drawn) [Example 106] | 4.9 | 5 | 1950 | – | –
COc1cc(-c2[nH]c3cnc(N4CCN(C5CCN(C(C)C)CC5)C[C@H]4C)c(F)c3c2C(C)C)cn2ncnc12 [Example 451] | 2.6 | – | – | 5.7 | 792
CCN1CCN(c2ncc3[nH]c(-c4cn5ncnc5c(C)c4C)c(C(C)C)c3c2F)CC1 [Example 433] | 3 | 0.32 | 6910 | – | –
COc1cc(-c2[nH]c3cnc(N4CCC(N5CC6(COC6)C5)CC4)c(F)c3c2C(C)C)cn2ncnc12 [Example 254] | 1.5 | 0.55 | 3010 | – | –
CCN(C)C1CCC(c2ncc3[nH]c(-c4cc(OC)c5ncnn5c4)c(C(C)C)c3c2F)CC1 (stereo not drawn) [Example 77] | 2.7 | 4.5 | 403 | – | –
CNC(=O)CN1CCN(c2ncc3[nH]c(-c4cn5ncnc5c(C)c4C)c(C(C)C)c3c2C)CC1 [Example 413] | 29 | 6.1 | > 50000 | – | –
COc1cc(-c2[nH]c3cnc(N4CCN(CC(=O)N(C)C)CC4)c(C)c3c2C(C)C)cn2ncnc12 [Example 252] | 6.4 | 5.2 | 3360 | – | –
COc1cc(-c2[nH]c3cnc(C4CCC(NC[C@@H](F)C(C)(C)O)CC4)c(C)c3c2C(C)C)cn2ncnc12 (stereo partly drawn) [Example 89] | 6.5 | 4.9 | 435 | – | –
Cc1c(-c2[nH]c3cnc(C4CCC(NCC(C)(C)C)CC4)c(C)c3c2C(C)C)cn2ncnc2c1C (stereo not drawn) [Example 58] | 60 | 23 | 692 | – | –
COc1cc(-c2[nH]c3cnc(C4CCC(NC5COC5)CC4)c(C)c3c2C(C)C)cn2ncnc12 (stereo not drawn) [Example 242] | 11 | 14 | 401 | – | –
CCN1CCN(c2ncc3[nH]c(-c4cc(OC)c5ncnn5c4)c(C(C)C)c3c2F)CC1 [Example 389] | 1.1 | 0.38 | 6160 | – | –
Cc1c(-c2[nH]c3cnc(N4CC5(CN(CC6(C)COC6)C5)C4)c(F)c3c2C(C)C)cn2ncnc2c1C [Example 405] | 46 | 15 | 17100 | – | –
COc1cc(-c2[nH]c3cnc(N4CCN(CC(=O)N(C)C)CC4)c(Cl)c3c2C(C)C)cn2ncnc12 [Example 305] | 2.5 | 1.4 | 2830 | – | –
COc1cc(-c2[nH]c3cnc(C4CCN(CC(=O)N(C)C)CC4)c(C)c3c2C(C)C)cn2ncnc12 [Example 24] | 9.7 | 39 | 279 | – | –
COCCN1CCN(c2ncc3[nH]c(-c4cc(OC)c5ncnn5c4)c(C(C)C)c3c2F)CC1 [Example 361] | 3.8 | 0.76 | 4850 | – | –
Cc1c(-c2[nH]c3cnc(N4CCN(CCS(C)(=O)=O)CC4)c(C)c3c2C(C)C)cn2ncnc2c1C [Example 415] | 26 | 5.2 | > 50000 | – | –
Cc1cc(-c2[nH]c3cnc(C4CCC(N5CCC5)CC4)c(F)c3c2C(C)C)cn2ncnc12 (stereo not drawn) [Example 262] | 1.3 | 4.2 | 1330 | – | –
Cc1c(-c2[nH]c3cnc(C4CCC(NC(C)C)CC4)c(F)c3c2C(C)C)cn2ncnc2c1C (stereo not drawn) [Example 136] | 0.41 | 0.32 | 620 | – | –
Cc1c(-c2[nH]c3cnc(N4CCN(C(=O)CN(C)C)C[C@H]4C)c(F)c3c2C(C)C)cn2ncnc2c1C [Example 470] | 4.9 | – | – | 0.49 | 15500
CNC(=O)CN1CC2(C1)CN(c1ncc3[nH]c(-c4cc(OC)c5ncnn5c4)c(C(C)C)c3c1F)C2 [Example 356, 2-(6-(4-fluoro-3-isopropyl-2-(8-methoxy-[1,2,4]triazolo[1,5-a]pyridin-6-yl)-1H-pyrrolo[2,3-c]pyridin-5-yl)-2,6-diazaspiro[3.3]heptan-2-yl)-N-methylacetamide] | 15 | 6.1 | 18500 | – | –
Cc1cc(-c2[nH]c3cnc(C4CCC(NC5COC5)CC4)c(F)c3c2C(C)C)cn2ncnc12 (stereo not drawn) [Example 80] | 0.16 | 0.6 | 1830 | – | –

Continued, values first:

IC50 (human TLR7) [nM] | IC50 (human TLR8; [1]) [nM] | IC50 (human TLR9; [2]) [nM] | IC50 (human TLR8; [3]) [nM] | IC50 (human TLR9; [4]) [nM] | Compound
3 | 0.85 | 657 | – | – | COc1cc(-c2[nH]c3cnc(N4CCC(NC(C)C)CC4)cc3c2C(C)C)cn2ncnc12 [Example 307]
12 | 28 | 677 | – | – | CNCC(=O)NC1CCN(c2cc3c(C(C)C)c(-c4cc(OC)c5ncnn5c4)[nH]c3cn2)CC1 [Example 339]
3 | 20 | 283 | – | – | COc1cc(-c2[nH]c3cnc(C4CCC(N5CCC5)CC4)cc3c2C(C)C)cn2ncnc12 (stereo not drawn) [Example 324]
18 | 37 | 2830 | – | – | COc1cc(-c2[nH]c3cnc(C4CCC(NC5COC5)C4)cc3c2C(C)C)cn2ncnc12 (stereo not drawn) [Example 93]
1.8 | 5.1 | 10300 | – | – | COc1cc(-c2[nH]c3cnc(N4CCN(C)C[C@H]4C)c(F)c3c2C(C)C)cn2ncnc12 [Example 436]
40 | 124 | 279 | – | – | COc1cc(-c2[nH]c3cnc(C4CCN(C(=O)CN(C)C)CC4)c(C)c3c2C(C)C)cn2ncnc12 [Example 32]
34 | 6.6 | 1080 | – | – | COc1cc(-c2[nH]c3cnc(C4CCC(NCC(C)(C)C)C4)cc3c2C(C)C)cn2ncnc12 (stereo not drawn) [Example 210]
4.7 | 89 | 550 | – | – | COc1cc(-c2[nH]c3cnc(C4CCNCC4)c(C)c3c2C(C)C)cn2ncnc12 [Example 1, 6-(3-isopropyl-4-methyl-5-(piperidin-4-yl)-1H-pyrrolo[2,3-c]pyridin-2-yl)-8-methoxy-[1,2,4] triazolo[1,5-a]pyridine]
3.3 | 4.4 | 409 | – | – | COc1cc(-c2[nH]c3cnc(C4CCN(C(=O)CN(C)C)CC4)c(F)c3c2C(C)C)cn2ncnc12 [Example 37]
7 | 2.7 | 321 | – | – | COc1cc(-c2[nH]c3cnc(C4CCC(NC5COC5)C4)cc3c2C(C)C)cn2ncnc12 (stereo not drawn) [Example 178]
5.6 | 19 | 896 | – | – | CNCC(=O)N1CCC(c2ncc3[nH]c(-c4cc(OC)c5ncnn5c4)c(C(C)C)c3c2F)CC1 [Example 10]
0.82 | – | – | 0.6 | 4740 | COc1cc(-c2[nH]c3cnc(N4CCC(N(C)C)CC4)c(F)c3c2C(C)C)cn2ncnc12 [Example 218]
> 3120 | > 3120 | 17900 | – | – | Cc1cc(-c2[nH]c3cnc(N4CCN(CC(=O)N(C)C)CC4)cc3c2C(C)C)cn2ncnc12 [Example 297]
0.61 | 1.4 | 2530 | – | – | COc1cc(-c2[nH]c3cnc(N4CCNCC4)c(F)c3c2C(C)C)cn2ncnc12 [Example 353, 6-(4-fluoro-3-isopropyl-5-(piperazin-1-yl)-1H-pyrrolo[2,3-c]pyridin-2-yl)-8-methoxy-[1,2,4]triazolo[1,5-a]pyridine]
4.4 | 2 | 3010 | – | – | COc1cc(-c2[nH]c3cnc(N4CCC(NC5COC5)CC4)cc3c2C(C)C)cn2ncnc12 [Example 320]
